# Results taken from ChEMBL document CHEMBL1201862, “PubChem BioAssay data set” (2004).
#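 Values below derive from 48-hour exposures of cells grown in 96-well plates, with endpoints linearly interpolated between the two concentrations bracketing the appropriate inhibition level. GI50 = concentration required for 50% inhibition of growth.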 Activity calls are given as the source filed them. Rule as the data show it: active = GI50 up to about 1.1 µM and inactive = higher.
# Columns and labels:
# Assay in all cases: NCI tumour cell line growth inhibition, 48 h
# HCT-116 = system: HCT-116
# SF-295 = system: SF-295
# U-251 = system: U-251
# TK-10 = system: TK-10
# PC-3 = system: PC-3
# NCI-H522 = system: NCI-H522
# A498 = system: A498
# MDA-MB-231 = system: MDA-MB-231
# HCT-15 = system: HCT-15
# UACC-62 = system: UACC-62
# SNB-19 = system: SNB-19
# NCI-H23 = system: NCI-H23
# SN12C = system: SN12C
# SF-268 = system: SF-268
# SW-620 = system: SW-620
# EKVX = system: EKVX
# SR = system: SR
# NCI-H460 = system: NCI-H460
# OVCAR-8 = system: OVCAR-8
# CAKI-1 = system: CAKI-1
# MOLT-4 = system: MOLT-4
# HOP-92 = system: HOP-92
# KM12 = system: KM12
# MDA-N = system: MDA-N
# MDA-MB-435 = system: MDA-MB-435
# M14 = system: M14
# SK-MEL-5 = system: SK-MEL-5
# SK-MEL-2 = system: SK-MEL-2
# ACHN = system: ACHN
# LOX IMVI = system: LOX IMVI
# OVCAR-5 = system: OVCAR-5
# CCRF-CEM = system: CCRF-CEM
# IGROV-1 = system: IGROV-1
# HOP-62 = system: HOP-62
# SNB-75 = system: SNB-75
# UO-31 = system: UO-31
# T47D = system: T47D
# OVCAR-3 = system: OVCAR-3
# BT-549 = system: BT-549
# RPMI-8226 = system: RPMI-8226
# UACC-257 = system: UACC-257
# NCI/ADR-RES = system: NCI/ADR-RES
# Hs-578T = system: Hs-578T
# MCF7 = system: MCF7
# SK-OV-3 = system: SK-OV-3
# COLO 205 = system: COLO 205
# OVCAR-4 = system: OVCAR-4
# K562 = system: K562
# DU-145 = system: DU-145
# NCI-H226 = system: NCI-H226
# SF-539 = system: SF-539
# RXF 393 = system: RXF 393
# 786-0 = system: 786-0
# A549 = system: A549
# HT-29 = system: HT-29
# Malme-3M = system: Malme-3M
# HL-60 = system: HL-60
smiles,measurement,setting,value
c1ccc(-c2ccc(/N=N/N3CCCC3)cc2)cc1,GI50,HCT-116,> 100 µM (inactive)
same,GI50,SF-295,> 100 µM (inactive)
same,GI50,U-251,> 100 µM (inactive)
same,GI50,TK-10,> 100 µM (inactive)
same,GI50,PC-3,> 100 µM (inactive)
same,GI50,NCI-H522,> 100 µM (inactive)
same,GI50,A498,> 100 µM (inactive)
same,GI50,MDA-MB-231,> 100 µM (inactive)
same,GI50,HCT-15,> 100 µM
same,GI50,UACC-62,> 100 µM (inactive)
same,GI50,SNB-19,> 100 µM (inactive)
same,GI50,NCI-H23,> 100 µM (inactive)
same,GI50,SN12C,> 100 µM (inactive)
same,GI50,SF-268,> 100 µM (inactive)
same,GI50,SW-620,> 100 µM (inactive)
same,GI50,EKVX,> 100 µM (inactive)
same,GI50,SR,7.11 µM (inactive)
same,GI50,NCI-H460,> 100 µM (inactive)
same,GI50,OVCAR-8,> 100 µM (inactive)
same,GI50,CAKI-1,> 100 µM (inactive)
same,GI50,MOLT-4,> 100 µM (inactive)
same,GI50,HOP-92,> 100 µM (inactive)
same,GI50,KM12,> 100 µM (inactive)
same,GI50,MDA-N,> 100 µM (inactive)
same,GI50,MDA-MB-435,> 100 µM (inactive)
same,GI50,M14,> 100 µM (inactive)
same,GI50,SK-MEL-5,> 100 µM (inactive)
same,GI50,SK-MEL-2,> 100 µM (inactive)
same,GI50,ACHN,> 100 µM (inactive)
same,GI50,LOX IMVI,> 100 µM (inactive)
same,GI50,OVCAR-5,> 100 µM (inactive)
same,GI50,CCRF-CEM,> 100 µM (inactive)
same,GI50,IGROV-1,> 100 µM (inactive)
same,GI50,HOP-62,> 100 µM (inactive)
same,GI50,SNB-75,> 100 µM (inactive)
same,GI50,UO-31,> 100 µM (inactive)
same,GI50,T47D,> 100 µM (inactive)
same,GI50,OVCAR-3,> 100 µM (inactive)
same,GI50,BT-549,> 100 µM (inactive)
same,GI50,RPMI-8226,22.8 µM (inactive)
same,GI50,UACC-257,> 100 µM (inactive)
same,GI50,NCI/ADR-RES,> 100 µM (inactive)
same,GI50,Hs-578T,> 100 µM (inactive)
same,GI50,MCF7,> 100 µM (inactive)
same,GI50,SK-OV-3,> 100 µM (inactive)
same,GI50,COLO 205,> 100 µM (inactive)
same,GI50,OVCAR-4,> 100 µM (inactive)
same,GI50,K562,> 100 µM (inactive)
same,GI50,DU-145,> 100 µM (inactive)
same,GI50,NCI-H226,> 100 µM (inactive)
same,GI50,SF-539,> 100 µM (inactive)
same,GI50,RXF 393,> 100 µM (inactive)
same,GI50,786-0,> 100 µM (inactive)
NNC(=O)CC(=O)Nc1ccc(C(=O)O)cc1,GI50,HCT-116,> 100 µM (inactive)
same,GI50,SF-295,> 100 µM (inactive)
same,GI50,U-251,> 100 µM (inactive)
same,GI50,TK-10,> 100 µM (inactive)
same,GI50,PC-3,> 100 µM (inactive)
same,GI50,NCI-H522,> 100 µM (inactive)
same,GI50,MDA-MB-231,> 100 µM (inactive)
same,GI50,HCT-15,> 100 µM
same,GI50,UACC-62,> 100 µM (inactive)
same,GI50,SNB-19,> 100 µM (inactive)
same,GI50,NCI-H23,> 100 µM (inactive)
same,GI50,SN12C,> 100 µM (inactive)
same,GI50,SF-268,> 100 µM (inactive)
same,GI50,SW-620,> 100 µM (inactive)
same,GI50,EKVX,> 100 µM (inactive)
same,GI50,SR,> 100 µM (inactive)
same,GI50,NCI-H460,> 100 µM (inactive)
same,GI50,OVCAR-8,> 100 µM (inactive)
same,GI50,CAKI-1,> 100 µM (inactive)
same,GI50,MOLT-4,> 100 µM (inactive)
same,GI50,HOP-92,> 100 µM (inactive)
same,GI50,KM12,> 100 µM (inactive)
same,GI50,MDA-N,> 100 µM (inactive)
same,GI50,MDA-MB-435,> 100 µM (inactive)
same,GI50,SK-MEL-5,> 100 µM (inactive)
same,GI50,A549,> 100 µM (inactive)
same,GI50,SK-MEL-2,> 100 µM (inactive)
same,GI50,ACHN,> 100 µM (inactive)
same,GI50,LOX IMVI,> 100 µM (inactive)
same,GI50,OVCAR-5,> 100 µM (inactive)
same,GI50,CCRF-CEM,> 100 µM (inactive)
same,GI50,IGROV-1,> 100 µM (inactive)
same,GI50,HOP-62,> 100 µM (inactive)
same,GI50,SNB-75,> 100 µM (inactive)
same,GI50,UO-31,> 100 µM (inactive)
same,GI50,T47D,> 100 µM (inactive)
same,GI50,OVCAR-3,> 100 µM (inactive)
same,GI50,BT-549,> 100 µM (inactive)
same,GI50,RPMI-8226,> 100 µM (inactive)
same,GI50,UACC-257,> 100 µM (inactive)
same,GI50,NCI/ADR-RES,> 100 µM (inactive)
same,GI50,Hs-578T,> 100 µM (inactive)
same,GI50,MCF7,> 100 µM (inactive)
same,GI50,SK-OV-3,> 100 µM (inactive)
same,GI50,COLO 205,> 100 µM (inactive)
same,GI50,OVCAR-4,> 100 µM (inactive)
same,GI50,K562,> 100 µM (inactive)
same,GI50,DU-145,> 100 µM (inactive)
same,GI50,NCI-H226,> 100 µM (inactive)
same,GI50,HT-29,> 100 µM (inactive)
same,GI50,Malme-3M,> 100 µM (inactive)
same,GI50,SF-539,> 100 µM (inactive)
same,GI50,RXF 393,> 100 µM (inactive)
same,GI50,786-0,> 100 µM (inactive)
same,GI50,HL-60,> 100 µM (inactive)
